Here are results for 5 compounds from patent US12338261B2 (SUMITOMO PHARMA ONCOLOGY, INC., priority 2015, dated 2025).

Structures are written as SMILES. Read-outs that look alike come from different tables or passages of the source.

Data set [1] is classed as in vitro ADME, mouse. As to conditions: for % Remaining: mouse, plasma. The method, then:
(§1) The plasma stability of compound IB′ was determined using plasma from four species. Results for mouse, rat, dog and human are shown in Tables 5, 6, 7 and 8 respectively. Alvocidib and flumazenil were used as controls. In mouse, rat and human plasma, compound IB′ maintained 100% stability after 5 hour incubation. In dog plasma, approximately 90% of compound IB′ remained after 5 hours.

Data set [2] is classed as in vitro ADME, rat. As to conditions: for % Remaining: rat, plasma. The method, then:
as §1

The next data set is described as follows: Dog plasma stability. Format: in vitro ADME. The method, then: as §1
The next data set in a line: Human plasma stability. Format: in vitro ADME. The method, then: The plasma stability of compound IB′ was determined using plasma from four species.
For data set [3] the following is noted: female SHO SCID mice, single dose. The method, then: Acute studies were performed in female SHO SCID mice using three animals per treatment group. […] Body weight measurements following oral dosing (FIGS. 2A-B) and intravenous (IV) dosing (FIG. 2C-D) were used, along with mortality and clinical observations to determine the maximum tolerated acute dose (MTDacute).

The conditions of data set [4]: for MTDrepeat: female SHO SCID mice, five daily doses. The method, then:
Repeat dose toxicology studies were performed in female SHO SCID mice using 3 animals per treatment group. […] Body weight measurements of animals treated by oral (see FIGS. 3A-B) and intravenous (see FIG. 3C-D) dosing over the course of the 5-day repeat dosing period and subsequent 5-day observation period, along with mortality and clinical observations, were used to determine the maximum tolerated dosing schedule (MTDrepeat).

The conditions of data set [5]: CD-1, mouse, in vivo.
The conditions of data set [6]: rat, in vivo, po.
Description: (§2) Acute (i.e. single dose) toxicology studies were performed in rats. Acute studies were performed in female Sprague Dawley rats using three animals per treatment group. […] Body weight measurements following oral dosing (see FIG. 4A), along with mortality, clinical observations, food consumption (see FIG. 4B), and complete blood counts (CBCs; see Table 12) were used to determine the maximum tolerated acute dose (MTDacute).
A short description of data set [7]: Maximum tolerated acute dose in rats.
Description: as §2
A short description of data set [8]: Pharmacokinetic profile of alvocidib prodrugs in CD-1 mice (IV/PO).
Setting [9] is: rats, single oral dose 36 mg/kg.

For orientation: Vd means the apparent volume that relates the amount in the body to the concentration in plasma or blood. Read a low Vd as little distribution into tissue. Broadly, the NOAEL is the highest dose or exposure tested at which no adverse effect was seen. As to `CN1CC[C@H](c2c(O)cc(O)c3c(=O)cc(-c4ccccc4Cl)oc23)[C@H](O)C1` [Alvocidib], the “% Remaining” value in data set [1] (0 h) is reported as 100.00%; in data set [1] (0.5 h), 93.58%; in data set [1] (1 h) it was 103.12%; in data set [1] (2 h), 97.19%; in data set [1] (3 h) it was 117.38%; in data set [1] (4 h) it was 115.72%. The “% Remaining” value in data set [2] (0 h) came out at 100.00%; in [2] (0.5 h), 93.12%; in data set [2] (1 h), 90.20%; in [2] (2 h), 99.31%; in [2] (3 h), 98.69%; in data set [2] (4 h), 92.57%. Besides, the “% Remaining” value in “Dog plasma stability” (dog plasma, 0 hours) is listed as 100.00%; in “Dog plasma stability” (dog plasma, 0.5 hours), 96.41%; in the data set “Dog plasma stability” (dog plasma, 1 hour), 89.16%; in “Dog plasma stability” (dog plasma, 2 hours), 105.76%; in “Dog plasma stability” (dog plasma, 3 hours) it was 105.84%; in “Dog plasma stability” (dog plasma, 4 hours), 97.65%. Besides, the “% Remaining” value in the data set “Dog plasma stability” (dog plasma, 5 hours) was 100.40%; in “Dog plasma stability” (dog plasma, 5 hours, listed as alvocidib) it was 100%; in “Human plasma stability” (human plasma, 0 hours), 100.00%; in the data set “Human plasma stability” (human plasma, 0.5 hours), 92.61%; in the data set “Human plasma stability” (human plasma, 1 hour), 93.54%; in the data set “Human plasma stability” (human plasma, 2 hours), 93.29%. The “% Remaining” value in “Human plasma stability” (human plasma, 3 hours) is given as 111.62%; in the data set “Human plasma stability” (human plasma, 4 hours) it was 100.25%; in “Human plasma stability” (human plasma, 5 hours) it was 100%. Besides, the MTDacute in [3] (dosed intravenously) came out at 7.5 mg/kg; in data set [3] (dosed orally), 15 mg/kg. Moreover, the MTDrepeat in [4] (dosed intravenously) and in data set [4] (dosed orally) was 7.5 mg/kg in each case. In addition, the clinical observations entry in data set [4] (mouse, in vivo, 15 mg/kg) was “Lethargy, body weight loss, and deaths were observed”. Besides, the Bioavail. in data set [5] stood at 102 ± 11.7 % F. In addition, the “AUC0-∞” value came to 517.0 ± 47.0 ng·h/mL in [5] (iv, 1 mg/kg) and 5341.1 ± 274.2 ng·h/mL in data set [5] (po, 10 mg/kg). For the same compound, the AUCLast in data set [5] (iv, 1 mg/kg) was determined as 498.0 ± 46.0 ng·h/mL; in data set [5] (po, 10 mg/kg) it was 5034.1 ± 145.6 ng·h/mL. In [5] (iv, 1 mg/kg), this compound registered a Clearance of 31.7 ± 3.3 mL/min/kg. Also, the Half life in data set [5] (iv, 1 mg/kg) is 2.0 ± 0.4 h; in data set [5] (po, 10 mg/kg) it was 5.7 ± 0.7 h. Moreover, the Vd in data set [5] (iv, 1 mg/kg) came out at 5.5 ± 1.2 L/kg. The same compound yielded a VdSS in data set [5] (iv, 1 mg/kg) of 3.8 ± 0.6 L/kg. Also, the figures for the HCT in data set [6] (4.5 mg/kg), in data set [6] (9 mg/kg) and in data set [6] (18 mg/kg) were 43.6%, 47.1% and 47.3%, respectively. Also, the MCH is recorded as 18.7 pg in data set [6] (4.5 mg/kg), 19.3 pg in [6] (9 mg/kg) and 19.3 pg in [6] (18 mg/kg). Also, the MCHC stood at 35.4 g/dL in data set [6] (4.5 mg/kg), 35.7 g/dL in data set [6] (9 mg/kg) and 35.9 g/dL in data set [6] (18 mg/kg). The MCV is 52.7 fL in data set [6] (4.5 mg/kg), 54.0 fL in data set [6] (9 mg/kg) and 53.8 fL in [6] (18 mg/kg). The figures for the PLT in [6] (4.5 mg/kg), in data set [6] (9 mg/kg) and in data set [6] (18 mg/kg) were 34.7 10^3/μL, 36.3 10^3/μL and 36.1 10^3/μL, respectively. The RBC in data set [6] (4.5 mg/kg) is listed as 8.3 10^6/μL; in [6] (9 mg/kg) it was 8.7 10^6/μL; in data set [6] (18 mg/kg), 8.8 10^6/μL. Further, the RDWA was 16.0 fL in [6] (4.5 mg/kg), 16.2 fL in data set [6] (9 mg/kg) and 16.1 fL in data set [6] (18 mg/kg). Besides, the WBC was 15.4 10^3/μL in data set [6] (4.5 mg/kg), 16.8 10^3/μL in data set [6] (9 mg/kg) and 16.9 10^3/μL in [6] (18 mg/kg). Further, in data set [6] (4.5 mg/kg), the “platelet counts versus normal range” value is “outside the normal range”. Moreover, the “abnormal food consumption patterns” value in data set [6] (18 mg/kg) is reported as “abnormal food consumption patterns were observed”. Besides, the diarrhea entry in data set [6] (18 mg/kg) is listed as “did show signs of diarrhea”. This compound also had an NOAEL in data set [7] (female, Sprague Dawley, rat, in vivo, po) of 9 mg/kg.

In [4] (dosed orally), `CN1CCC(c2c(OP(=O)(O)O)cc(O)c3c(=O)cc(-c4ccccc4Cl)oc23)C(O)C1` (stereo not drawn) [Compound IB] had an MTDrepeat of 7.5 mg/kg. Also, in data set [7] (setting [9]), the clinical observations entry was “Diarrhea, body weight loss and increased lethargy were observed”; the mortality entry was “one animal died on day three, one animal died on day four, and one animal died on day 5”.

For `CN1CC[C@H](c2c(O)cc(O)c3c(=O)cc(-c4ccccc4Cl)oc23)[C@H](OC(=O)C(C)(C)C)C1` [E], in [8], the “conversion to alvocidib in vivo (alvocidib detected in plasma samples)” value is “did not convert to alvocidib in vivo”.

Consider `C[N+]1(C)CC[C@H](c2c(O)cc(O)c3c(=O)cc(-c4ccccc4Cl)oc23)[C@H](O)C1` [F], for which, in data set [8], the “conversion to alvocidib in vivo (alvocidib detected in plasma samples)” value was “did not convert to alvocidib in vivo”.

Consider `CCOC(=O)c1ncn2c1CN(C)C(=O)c1cc(F)ccc1-2` [Flumazenil], for which the “plasma stability (in words)” value in data set [1] and in data set [2] was “unstable” each time. In addition, the “% Remaining” value in [1] (0 h) came out at 100.00%; in data set [1] (0.5 h), 29.96%; in [1] (1 h) it was 10.21%; in [1] (2 h) it was 1.56%; in [1] (3 h), 0.39%; in [1] (4 h) it was 0.20%. Besides, the “% Remaining” value in [1] (5 h) is listed as 0.07%; in [2] (0 h) it was 100.00%; in [2] (0.5 h), 42.23%; in data set [2] (1 h), 16.13%; in data set [2] (2 h), 1.69%; in [2] (3 h) it was 0.23%. In addition, the “% Remaining” value is listed as 0.00% in [2] (4 h); 0.00% in data set [2] (5 h); 100.00% in the data set “Dog plasma stability” (dog, plasma, 0 h); 91.80% in the data set “Dog plasma stability” (dog, plasma, 0.5 h); 92.00% in “Dog plasma stability” (dog, plasma, 1 h); 100.99% in the data set “Dog plasma stability” (dog, plasma, 2 h). The “% Remaining” value amounted to 115.10% in “Dog plasma stability” (dog, plasma, 3 h); 99.44% in “Dog plasma stability” (dog, plasma, 4 h); 100.53% in “Dog plasma stability” (dog, plasma, 5 h); 100.00% in the data set “Human plasma stability” (human, plasma, 0 h); 96.56% in “Human plasma stability” (human, plasma, 0.5 h); 90.83% in “Human plasma stability” (human, plasma, 1 h). Also, the “% Remaining” value in “Human plasma stability” (human, plasma, 2 h) stood at 92.41%; in “Human plasma stability” (human, plasma, 3 h), 117.98%; in the data set “Human plasma stability” (human, plasma, 4 h) it was 95.32%; in “Human plasma stability” (human, plasma, 5 h) it was 94.63%.
